{
  "source": "patent US12668587B2",
  "about": "“Benzimidazolone GLP-1 receptor agonist and use thereof” (HANGZHOU ZHONGMEIHUADONG PHARMACEUTICAL CO., LTD., priority 2020, dated 2026)",
  "key": {"[1]": {"experiment": "Metabolic stability in (human) liver microsomes", "details": "pH 7.4"}, "Human GLP-1R": {"molecular_target": "Human GLP-1R (Homo sapiens, UniProt P43220)", "sequence (P43220 24-463)": "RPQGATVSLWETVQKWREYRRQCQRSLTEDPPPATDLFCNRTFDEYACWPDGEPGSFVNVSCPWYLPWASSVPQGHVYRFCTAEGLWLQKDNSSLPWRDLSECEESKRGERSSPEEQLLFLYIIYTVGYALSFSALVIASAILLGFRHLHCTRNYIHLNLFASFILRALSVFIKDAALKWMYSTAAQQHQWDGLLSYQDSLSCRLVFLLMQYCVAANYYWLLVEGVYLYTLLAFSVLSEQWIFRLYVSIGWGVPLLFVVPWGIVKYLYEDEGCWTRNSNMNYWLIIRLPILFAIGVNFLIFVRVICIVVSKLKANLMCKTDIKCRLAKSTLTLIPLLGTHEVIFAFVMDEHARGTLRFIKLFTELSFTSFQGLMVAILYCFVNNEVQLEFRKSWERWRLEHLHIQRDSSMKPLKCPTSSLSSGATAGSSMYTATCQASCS", "experiment": "GLP-1R agonist activity, HTRF cAMP detection in 293A GFP-GLP-1R cells", "design": "Emax: dose or concentration left out as unconfirmed", "details": "for Emax: 293A", "method": "GLP-1R-mediated agonist activity was determined by cell-based assays using a homogeneous time-resolved fluorescence (i.e., HTRF)-based cAMP detection kit, which measures the level of cAMP in cells. The method was a competitive immunoassay. It enabled direct pharmacological characterization of compounds acting on Gs-coupled receptors in adherent or suspending cells.\nThe standard curve of native cAMP or unlabeled cAMP produced by cells competed with d2-labeled cAMP red receptors to bind monoclonal anti-cAMP Eu3+ cryptate donors, and the specific signal was inversely proportional to the concentration of cAMP in standard or tested samples.\nHuman GLP-1R encoding sequence (NCBI reference sequence NP_002053.3) was subcloned into pEGFP-N1 (tsingke), and the cell line stably expressing the receptor was isolated. The expression density of GLP-1R was confirmed by the expression of GFP observed under a fluorescence microscope.\nCells were collected from a T25 tissue culture flask and centrifuged at room temperature at 1000 rpm for 5 minutes. The cell precipitates were then re-suspended in 1 mL of the stimulating buffer. 20 μL sample of cell suspension was counted on a counter STAR IC 1000 to determine the cell viability and the cell count per mL. The remaining cell suspension was then regulated with the stimulating buffer to deliver 2000 living cells per well using a multi-channel pipette. 5 μL of the cell suspension was added to each well of the plate which already contained the compound. The plate was sealed and incubated at 37° C. with 5% CO2 for 30 minutes.\nAfter 30 minutes of incubation, 5 μL of d2-labeled cAMP and 5 μL of anti-cAMP cryptate (both 1: 20 diluted in the cell lysis buffer) were added to each well of the plate. The plate was then incubated at room temperature for 60 minutes, and the changes of HTRF signal were read with Tecan Spark reader: absorbance values at 340 nm (excitation)/at 615 nm and 665 nm (emission). Raw data were converted into nM cAMP by interpolation from the cAMP standard curve, and the effect in percentage was determined relative to the saturated concentration of the complete agonist GLP-17˜37 (400 nM) contained in each plate. Determination of EC50 was performed based on the agonist dose-response curve, which was analyzed using a four-parameter logical dose-response equation with a curve fitting program.\nThe test data presented the results in the form of a geometric mean (EC50s) based on the number of repetition times."}, "hERG potassium channels": {"molecular_target": "hERG potassium channels (Homo sapiens, UniProt Q12809)", "sequence (Q12809 whole entry)": "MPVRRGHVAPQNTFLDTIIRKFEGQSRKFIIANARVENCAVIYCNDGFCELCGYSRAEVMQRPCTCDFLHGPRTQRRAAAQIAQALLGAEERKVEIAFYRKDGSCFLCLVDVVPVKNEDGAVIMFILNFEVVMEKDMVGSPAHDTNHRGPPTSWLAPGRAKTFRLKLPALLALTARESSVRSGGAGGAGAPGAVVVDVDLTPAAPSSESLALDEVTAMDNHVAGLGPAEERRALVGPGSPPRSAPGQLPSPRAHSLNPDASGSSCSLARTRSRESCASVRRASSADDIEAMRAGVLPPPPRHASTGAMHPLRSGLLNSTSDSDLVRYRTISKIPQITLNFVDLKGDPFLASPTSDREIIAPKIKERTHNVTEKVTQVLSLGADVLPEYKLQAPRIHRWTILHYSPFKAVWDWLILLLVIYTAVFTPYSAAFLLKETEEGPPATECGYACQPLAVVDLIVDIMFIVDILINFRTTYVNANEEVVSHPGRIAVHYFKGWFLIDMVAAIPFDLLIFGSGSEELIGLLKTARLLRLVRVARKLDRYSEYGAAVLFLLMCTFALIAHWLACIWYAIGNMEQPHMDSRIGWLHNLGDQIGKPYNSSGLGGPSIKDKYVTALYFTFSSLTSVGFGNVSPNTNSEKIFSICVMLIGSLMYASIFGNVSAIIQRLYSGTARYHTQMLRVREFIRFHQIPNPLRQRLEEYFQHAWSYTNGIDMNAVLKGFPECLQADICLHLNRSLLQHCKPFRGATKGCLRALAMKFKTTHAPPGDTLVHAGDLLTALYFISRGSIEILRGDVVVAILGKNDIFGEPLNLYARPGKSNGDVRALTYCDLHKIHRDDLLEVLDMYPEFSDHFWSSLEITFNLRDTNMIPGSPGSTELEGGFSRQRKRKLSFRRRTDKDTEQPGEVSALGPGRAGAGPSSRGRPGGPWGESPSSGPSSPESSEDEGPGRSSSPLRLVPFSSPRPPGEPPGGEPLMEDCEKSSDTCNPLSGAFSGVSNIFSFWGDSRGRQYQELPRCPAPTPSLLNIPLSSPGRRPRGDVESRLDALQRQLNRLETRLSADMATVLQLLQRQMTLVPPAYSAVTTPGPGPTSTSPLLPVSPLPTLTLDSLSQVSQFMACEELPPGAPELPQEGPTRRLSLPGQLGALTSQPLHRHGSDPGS", "experiment": "Inhibition of hERG potassium channels, whole-cell patch clamp in HEK-293-hERG cells"}},
  "note": "Like-named read-outs stand apart in the source and are kept apart here.",
  "data": [
    {"smiles": "O=C(O)c1ccc2nc(CN3CC=C(c4cccc(OCc5ccc(C(=O)C6CC6)cc5F)n4)CC3)n(C[C@@H]3CCO3)c2c1", "note": "[Compound 22, (S)-2-((6-((4-(cyclopropanecarbonyl)-2-fluorobenzyl)oxy)-3′,6′-dihydro-[2,4′-bipyridin]-1′(2′H)-yl)methyl)-1-(oxetan-2-ylmethyl)-1H-benzo[d]imidazole-6-carboxylic acid]", "values": [
      {"measurement": "half-life at 1 μM", "setting": "[1]", "result": 60.1, "unit": "min"},
      {"measurement": "EC50", "setting": "Human GLP-1R", "result": 2.07, "unit": "nM"},
      {"measurement": "Emax", "setting": "Human GLP-1R", "result": 83.4, "unit": "%"},
      {"measurement": "hERG (IR)", "setting": "hERG potassium channels; inhibition rate of hERG tail current at 1 μM", "result": 0.92, "unit": "%"},
      {"measurement": "hERG (IR)", "setting": "hERG potassium channels; inhibition rate of hERG tail current at 10 μM", "result": 23.50, "unit": "%"}
    ]},
    {"smiles": "CCC(=O)c1ccc(COc2cccc(C3=CCN(Cc4nc5ccc(C(=O)O)cc5n4C[C@@H]4CCO4)CC3)n2)c(F)c1", "note": "[Compound 25, (S)-2-((6-((2-fluoro-4-propionylbenzyl)oxy)-3′,6′-dihydro-[2,4′-bipyridin]-1′(2′H)-yl)methyl)-1-(oxetan-2-ylmethyl)-1H-benzo[d]imidazole-6-carboxylic acid]", "values": [
      {"measurement": "half-life at 1 μM", "setting": "[1]", "result": 25.5, "unit": "min"},
      {"measurement": "EC50", "setting": "Human GLP-1R", "result": 0.95, "unit": "nM"},
      {"measurement": "Emax", "setting": "Human GLP-1R", "result": 100, "unit": "%"}
    ]},
    {"smiles": "CC(=O)c1ccc(COc2cccc(C3=CCN(Cc4nc5ccc(C(=O)O)cc5n4C[C@@H]4CCO4)CC3)n2)c(F)c1", "note": "[Compound 34, (S)-2-((6-((4-acetyl-2-fluorobenzyl)oxy)-3′,6′-dihydro-[2,4′-bipyridin]-1′(2′H)-yl)methyl)-1-(oxetan-2-ylmethyl)-1H-benzo[d]imidazole-6-carboxylic acid]", "values": [
      {"measurement": "half-life at 1 μM", "setting": "[1]", "result": 14.2, "unit": "min"},
      {"measurement": "EC50", "setting": "Human GLP-1R", "result": 0.7, "unit": "nM"},
      {"measurement": "Emax", "setting": "Human GLP-1R", "result": 81.5, "unit": "%"}
    ]},
    {"smiles": "Cc1cc(COc2cccc(C3CCN(Cc4nc5ccc(C(=O)O)cc5n4C[C@@H]4CCO4)CC3)n2)c(F)cc1C(=O)C1CC1", "note": "[Compound 38, (S)-2-((4-(6-((4-(cyclopropanecarbonyl)-2-fluoro-5-methylbenzyl)oxy)pyridin-2-yl)piperidin-1-yl)methyl)-1-(oxetan-2-ylmethyl)-1H-benzo[d]imidazole-6-carboxylic acid]", "values": [
      {"measurement": "EC50", "setting": "Human GLP-1R", "result": "> 1000", "unit": "nM"},
      {"measurement": "Emax", "setting": "Human GLP-1R", "result": 85.9, "unit": "%"}
    ]},
    {"smiles": "C[C@H]1CN(c2cccc(OCc3ccc(C(=O)C4CC4)cc3F)n2)CCN1Cc1nc2ccc(C(=O)O)cc2n1C[C@@H]1CCO1", "note": "[Compound 39, 2-(((S)-4-(6-((4-(cyclopropanecarbonyl)-2-fluorobenzyl)oxy)pyridin-2-yl)-2-methylpiperazin-1-yl)methyl)-1-(((S)-oxetan-2-yl)methyl)-1H-benzo[d]imidazole-6-carboxylic acid]", "values": [
      {"measurement": "EC50", "setting": "Human GLP-1R", "result": 3.38, "unit": "nM"},
      {"measurement": "Emax", "setting": "Human GLP-1R", "result": 87.9, "unit": "%"}
    ]},
    {"smiles": "Cc1cc(C(=O)C2CC2)ccc1COc1cccc(C2CCN(Cc3nc4ccc(C(=O)O)nc4n3C[C@@H]3CCO3)CC2)n1", "note": "[Compound 40, (S)-2-((4-(6-((4-(cyclopropanecarbonyl)-2-methylbenzyl)oxy)pyridin-2-yl)piperidin-1-yl)methyl)-3-(oxetan-2-ylmethyl)-3H-imidazo[4,5-b]pyridine-5-carboxylic acid]", "values": [
      {"measurement": "EC50", "setting": "Human GLP-1R", "result": 0.07, "unit": "nM"},
      {"measurement": "Emax", "setting": "Human GLP-1R", "result": 94.7, "unit": "%"}
    ]},
    {"smiles": "Cc1cc(C(=O)C2CC2)ccc1COc1cccc(N2CCN(Cc3nc4ccc(C(=O)O)cc4n3C[C@@H]3CCO3)[C@@H](C)C2)n1", "note": "[Compound 41, 2-(((S)-4-(6-((4-(cyclopropanecarbonyl)-2-methylbenzyl)oxy)pyridin-2-yl)-2-methylpiperazin-1-yl)methyl)-1-(((S)-oxetan-2-yl)methyl)-1H-benzo[d]imidazole-6-carboxylic acid]", "values": [
      {"measurement": "EC50", "setting": "Human GLP-1R", "result": "> 1000", "unit": "nM"},
      {"measurement": "Emax", "setting": "Human GLP-1R", "result": 77.3, "unit": "%"}
    ]},
    {"smiles": "O=C(O)c1ccc2nc(CC3CCN(c4cccc(OCc5ccc(C(=O)C6CC6)cc5F)n4)CC3)n(C[C@@H]3CCO3)c2c1", "note": "[Compound 42, (S)-2-((1-(6-((4-(cyclopropanecarbonyl)-2-fluorobenzyl)oxy)pyridin-2-yl)piperidin-4-yl)methyl)-1-(oxetan-2-ylmethyl)-1H-benzo[d]imidazole-6-carboxylic acid]", "values": [
      {"measurement": "EC50", "setting": "Human GLP-1R", "result": 0.23, "unit": "nM"}
    ]},
    {"smiles": "CC(C)C(=O)c1ccc(COc2cccc(C3CCN(Cc4nc5ccc(C(=O)O)cc5n4C[C@@H]4CCO4)CC3)n2)c(F)c1", "note": "[Compound 43, (S)-2-((4-(6-((2-fluoro-4-isobutyrylbenzyl)oxy)pyridin-2-yl)piperidin-1-yl)methyl)-1-(oxetan-2-ylmethyl)-1H-benzo[d]imidazole-6-carboxylic acid]", "values": [
      {"measurement": "EC50", "setting": "Human GLP-1R; cAMP level, 293A GFP-GLP-1R cells, 30 min incubation, geometric mean", "result": 1.4, "unit": "nM"}
    ]},
    {"smiles": "O=C(O)c1ccc2nc(CN3CCC(c4cccc(OCc5ccc(C(=O)C6CC6)cc5Cl)n4)CC3)n(C[C@@H]3CCO3)c2c1", "note": "[Compound 44, (S)-2-((4-(6-((2-chloro-4-(cyclopropanecarbonyl)benzyl)oxy)pyridin-2-yl)piperidin-1-yl)methyl)-1-(oxetan-2-ylmethyl)-1H-benzo[d]imidazole-6-carboxylic acid]", "values": [
      {"measurement": "EC50", "setting": "Human GLP-1R", "result": 0.02, "unit": "nM"}
    ]},
    {"smiles": "N#CCC1(Cn2c(CN3CCC(c4cccc(OCc5ccc(C(=O)C6CC6)cc5F)n4)CC3)nc3ccc(C(=O)O)cc32)CC1", "note": "[Compound 45]", "values": [
      {"measurement": "EC50", "setting": "Human GLP-1R", "result": 0.013, "unit": "nM"}
    ]},
    {"smiles": "O=C(O)c1ccc2nc(Cc3ccc(-c4cccc(OCc5ccc(C(=O)C6CC6)cc5F)n4)cc3F)n(C[C@@H]3CCO3)c2c1", "note": "[Compound 46]", "values": [
      {"measurement": "EC50", "setting": "Human GLP-1R", "result": 0.02, "unit": "nM"}
    ]},
    {"smiles": "O=C(O)c1ccc2nc(CN3CCC(c4cccc(OCc5ccc(C(=O)C6CC6)cc5F)n4)CC3)n(CC3(CF)CC3)c2c1", "note": "[Compound 47]", "values": [
      {"measurement": "EC50", "setting": "Human GLP-1R", "result": 0.01, "unit": "nM"}
    ]},
    {"smiles": "O=C(O)c1ccc2nc(Cc3ccc(-c4cccc(OCc5ccc(C(=O)C6CC6)cc5F)n4)cc3F)n(CC3(CF)CC3)c2c1", "note": "[Compound 48]", "values": [
      {"measurement": "EC50", "setting": "Human GLP-1R", "result": 0.065, "unit": "nM"}
    ]}
  ]
}
